The values below come from ChEMBL document CHEMBL5291721, “A preclinical secondary pharmacology resource illuminates target-adverse drug reaction associations of marketed drugs” (Nat Commun, 2023).

Assay [1] concerns the target T1, Alpha-1A adrenergic receptor (Homo sapiens, UniProt P35348).
T1 sequence (P35348 whole entry): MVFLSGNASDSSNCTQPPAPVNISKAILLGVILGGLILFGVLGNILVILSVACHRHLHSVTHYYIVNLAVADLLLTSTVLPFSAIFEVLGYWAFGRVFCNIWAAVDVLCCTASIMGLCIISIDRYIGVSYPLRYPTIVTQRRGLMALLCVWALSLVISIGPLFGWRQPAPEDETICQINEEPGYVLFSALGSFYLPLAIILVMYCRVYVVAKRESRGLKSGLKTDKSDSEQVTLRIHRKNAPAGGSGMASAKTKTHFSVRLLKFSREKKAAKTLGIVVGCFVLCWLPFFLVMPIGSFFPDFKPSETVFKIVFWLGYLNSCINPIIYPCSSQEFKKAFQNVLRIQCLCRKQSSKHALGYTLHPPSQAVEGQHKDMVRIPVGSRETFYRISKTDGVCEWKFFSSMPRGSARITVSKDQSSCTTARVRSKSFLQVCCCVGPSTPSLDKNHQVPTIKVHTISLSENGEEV
The assay is classed as functional, cell-based.

In assay [2] the target is T1, Alpha-1A adrenergic receptor.
Assay [3] has as its target Beta-2 adrenergic receptor (Homo sapiens, UniProt P07550).
In assay [4] the target is Voltage-dependent L-type calcium channel subunit alpha-1C (Rattus norvegicus, UniProt P22002). The assay is classed as functional.
The target of assay [5] is T2, Muscarinic acetylcholine receptor M2 (Homo sapiens, UniProt P08172).
T2 sequence (P08172 whole entry): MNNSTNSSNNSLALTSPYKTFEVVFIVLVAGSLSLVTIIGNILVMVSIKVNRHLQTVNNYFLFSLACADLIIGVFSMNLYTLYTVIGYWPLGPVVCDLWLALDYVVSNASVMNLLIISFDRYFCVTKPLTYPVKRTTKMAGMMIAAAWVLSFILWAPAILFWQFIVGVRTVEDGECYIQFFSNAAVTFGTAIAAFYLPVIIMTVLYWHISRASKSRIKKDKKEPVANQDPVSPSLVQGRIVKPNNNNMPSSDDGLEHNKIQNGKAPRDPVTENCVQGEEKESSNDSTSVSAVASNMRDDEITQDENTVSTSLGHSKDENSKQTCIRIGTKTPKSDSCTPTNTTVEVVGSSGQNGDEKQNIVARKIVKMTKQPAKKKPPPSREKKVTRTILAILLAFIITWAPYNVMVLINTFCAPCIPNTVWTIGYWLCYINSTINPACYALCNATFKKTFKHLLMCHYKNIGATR

A further assay addresses D(1A) dopamine receptor (Homo sapiens, UniProt P21728).
In assay [6] the target is T3, Histamine H3 receptor (Homo sapiens, UniProt Q9Y5N1).
The target of assay [7] is T4, 5-hydroxytryptamine receptor 1A (Homo sapiens, UniProt P08908).
T4 sequence (P08908 whole entry): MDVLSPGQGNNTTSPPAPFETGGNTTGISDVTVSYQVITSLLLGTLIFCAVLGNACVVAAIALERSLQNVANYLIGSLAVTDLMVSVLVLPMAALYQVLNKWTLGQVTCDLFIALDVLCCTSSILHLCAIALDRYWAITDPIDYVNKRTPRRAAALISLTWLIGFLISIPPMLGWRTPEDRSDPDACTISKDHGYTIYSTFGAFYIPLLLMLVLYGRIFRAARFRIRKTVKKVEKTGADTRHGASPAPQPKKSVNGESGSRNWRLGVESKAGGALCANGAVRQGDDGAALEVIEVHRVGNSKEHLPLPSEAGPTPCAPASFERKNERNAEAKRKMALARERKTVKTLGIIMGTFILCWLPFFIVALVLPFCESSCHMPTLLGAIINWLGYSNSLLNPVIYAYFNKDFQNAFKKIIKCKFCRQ

The target of assay [8] is 5-hydroxytryptamine receptor 2B (Homo sapiens, UniProt P41595). The assay is classed as functional, cell-based.
Assay [9] addresses T5, Amine oxidase [flavin-containing] A (Homo sapiens, UniProt P21397).
T5 sequence (P21397 whole entry): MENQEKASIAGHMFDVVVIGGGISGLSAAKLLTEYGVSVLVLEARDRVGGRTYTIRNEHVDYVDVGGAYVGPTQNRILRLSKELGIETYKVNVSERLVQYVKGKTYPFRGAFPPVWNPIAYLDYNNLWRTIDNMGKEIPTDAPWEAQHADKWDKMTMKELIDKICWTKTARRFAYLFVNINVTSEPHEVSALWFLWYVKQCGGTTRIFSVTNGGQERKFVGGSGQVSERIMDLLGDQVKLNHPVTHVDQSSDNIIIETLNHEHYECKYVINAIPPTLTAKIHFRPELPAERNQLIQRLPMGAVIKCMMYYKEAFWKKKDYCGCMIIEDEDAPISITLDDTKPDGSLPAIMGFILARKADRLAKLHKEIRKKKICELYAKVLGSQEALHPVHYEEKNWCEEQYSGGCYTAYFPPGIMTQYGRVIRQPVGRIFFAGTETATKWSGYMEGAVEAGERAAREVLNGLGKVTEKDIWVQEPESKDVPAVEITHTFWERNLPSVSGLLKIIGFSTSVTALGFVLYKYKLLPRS
The assay is classed as functional.

In assay [10] the target is T6, Neuropeptide Y receptor type 1 (Homo sapiens, UniProt P25929).
T6 sequence (P25929 whole entry): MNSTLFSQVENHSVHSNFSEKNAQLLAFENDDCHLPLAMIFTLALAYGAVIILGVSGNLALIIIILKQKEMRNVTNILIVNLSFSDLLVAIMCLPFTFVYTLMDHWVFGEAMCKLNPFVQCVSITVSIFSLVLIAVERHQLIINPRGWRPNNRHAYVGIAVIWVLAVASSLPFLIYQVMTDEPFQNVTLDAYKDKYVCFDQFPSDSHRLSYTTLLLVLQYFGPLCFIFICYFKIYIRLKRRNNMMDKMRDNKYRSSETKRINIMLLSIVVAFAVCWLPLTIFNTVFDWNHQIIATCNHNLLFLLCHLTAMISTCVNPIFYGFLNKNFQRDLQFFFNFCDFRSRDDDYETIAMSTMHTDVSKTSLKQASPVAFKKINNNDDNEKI

Assay [11] deals with T7, Prostaglandin G/H synthase 1 (Homo sapiens, UniProt P23219). Format: functional.
Assay [12] addresses T7, Prostaglandin G/H synthase 1. Format: functional. The source holds these as a separate data set.
The target of assay [13] is Sodium-dependent serotonin transporter (Homo sapiens, UniProt P31645).
In assay [14] the target is T3, Histamine H3 receptor. The source holds these as a separate data set.

A value given as a limit tells only on which side of the number the result lay.
Further: assay procedure not described here.

T3 sequence (Q9Y5N1 whole entry): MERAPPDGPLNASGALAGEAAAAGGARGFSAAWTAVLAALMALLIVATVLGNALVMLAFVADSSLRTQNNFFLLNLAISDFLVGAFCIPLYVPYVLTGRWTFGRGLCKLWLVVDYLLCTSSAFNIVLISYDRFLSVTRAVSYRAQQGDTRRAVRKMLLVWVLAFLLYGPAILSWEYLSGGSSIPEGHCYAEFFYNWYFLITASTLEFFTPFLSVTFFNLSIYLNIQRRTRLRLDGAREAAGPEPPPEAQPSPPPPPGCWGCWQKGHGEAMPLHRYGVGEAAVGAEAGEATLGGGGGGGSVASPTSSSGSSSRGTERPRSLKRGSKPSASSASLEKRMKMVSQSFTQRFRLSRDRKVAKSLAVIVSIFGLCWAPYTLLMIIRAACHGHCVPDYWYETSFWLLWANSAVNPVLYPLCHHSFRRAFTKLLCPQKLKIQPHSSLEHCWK
T7 sequence (P23219 whole entry): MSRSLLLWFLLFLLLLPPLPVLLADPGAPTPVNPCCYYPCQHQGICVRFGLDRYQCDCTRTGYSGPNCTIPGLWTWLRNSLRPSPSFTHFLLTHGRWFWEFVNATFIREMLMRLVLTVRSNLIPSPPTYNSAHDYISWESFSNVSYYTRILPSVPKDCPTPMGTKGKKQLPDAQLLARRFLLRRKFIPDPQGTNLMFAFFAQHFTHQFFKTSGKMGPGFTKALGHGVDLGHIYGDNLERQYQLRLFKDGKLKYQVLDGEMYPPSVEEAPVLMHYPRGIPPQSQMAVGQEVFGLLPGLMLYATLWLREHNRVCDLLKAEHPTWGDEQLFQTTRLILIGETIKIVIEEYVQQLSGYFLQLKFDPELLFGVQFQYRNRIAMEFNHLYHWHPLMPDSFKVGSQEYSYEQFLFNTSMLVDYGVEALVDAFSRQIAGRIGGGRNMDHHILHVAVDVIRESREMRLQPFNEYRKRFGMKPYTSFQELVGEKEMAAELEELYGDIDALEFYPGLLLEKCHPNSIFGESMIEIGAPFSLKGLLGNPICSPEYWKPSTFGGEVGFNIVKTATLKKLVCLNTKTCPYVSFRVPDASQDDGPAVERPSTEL
Beta-2 adrenergic receptor, sequence (P07550 whole entry): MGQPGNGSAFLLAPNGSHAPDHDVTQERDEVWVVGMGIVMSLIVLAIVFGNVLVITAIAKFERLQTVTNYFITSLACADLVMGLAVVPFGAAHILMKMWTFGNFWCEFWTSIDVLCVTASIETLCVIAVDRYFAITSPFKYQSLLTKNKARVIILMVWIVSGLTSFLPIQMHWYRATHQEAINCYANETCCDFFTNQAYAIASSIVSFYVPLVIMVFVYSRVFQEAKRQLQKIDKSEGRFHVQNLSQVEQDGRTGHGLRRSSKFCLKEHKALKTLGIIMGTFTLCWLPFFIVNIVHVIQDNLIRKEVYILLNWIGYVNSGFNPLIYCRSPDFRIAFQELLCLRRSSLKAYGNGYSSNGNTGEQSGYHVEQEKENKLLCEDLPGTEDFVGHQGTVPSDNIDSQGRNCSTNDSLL
Sodium-dependent serotonin transporter, sequence (P31645 whole entry): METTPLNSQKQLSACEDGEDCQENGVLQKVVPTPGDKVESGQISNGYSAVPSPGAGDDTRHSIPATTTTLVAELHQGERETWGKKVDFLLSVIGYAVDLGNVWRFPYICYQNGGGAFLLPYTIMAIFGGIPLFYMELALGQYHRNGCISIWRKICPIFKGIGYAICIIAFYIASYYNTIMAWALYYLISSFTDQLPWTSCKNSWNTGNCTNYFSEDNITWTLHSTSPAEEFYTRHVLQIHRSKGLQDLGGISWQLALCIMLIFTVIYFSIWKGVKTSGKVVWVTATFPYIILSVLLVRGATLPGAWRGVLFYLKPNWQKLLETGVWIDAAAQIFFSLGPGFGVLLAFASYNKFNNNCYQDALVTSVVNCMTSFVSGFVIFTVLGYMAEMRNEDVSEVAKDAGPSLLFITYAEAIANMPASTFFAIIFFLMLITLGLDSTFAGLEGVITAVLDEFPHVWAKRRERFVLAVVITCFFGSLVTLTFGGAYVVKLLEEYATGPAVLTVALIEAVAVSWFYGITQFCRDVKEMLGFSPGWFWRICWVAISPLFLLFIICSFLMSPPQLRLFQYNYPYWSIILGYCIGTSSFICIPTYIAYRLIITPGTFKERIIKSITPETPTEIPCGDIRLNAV
D(1A) dopamine receptor, sequence (P21728 whole entry): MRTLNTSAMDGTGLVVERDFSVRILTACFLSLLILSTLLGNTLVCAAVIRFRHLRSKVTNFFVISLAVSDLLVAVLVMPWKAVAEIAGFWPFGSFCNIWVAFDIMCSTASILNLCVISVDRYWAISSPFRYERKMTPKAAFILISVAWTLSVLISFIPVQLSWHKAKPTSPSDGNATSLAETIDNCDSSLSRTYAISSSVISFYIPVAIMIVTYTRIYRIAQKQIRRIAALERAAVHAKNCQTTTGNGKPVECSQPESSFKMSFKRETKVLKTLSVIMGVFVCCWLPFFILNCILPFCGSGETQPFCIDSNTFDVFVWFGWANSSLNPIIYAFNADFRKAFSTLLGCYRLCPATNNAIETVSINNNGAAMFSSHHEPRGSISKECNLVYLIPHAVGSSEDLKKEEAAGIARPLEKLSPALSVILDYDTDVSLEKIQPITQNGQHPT
5-hydroxytryptamine receptor 2B, sequence (P41595 whole entry): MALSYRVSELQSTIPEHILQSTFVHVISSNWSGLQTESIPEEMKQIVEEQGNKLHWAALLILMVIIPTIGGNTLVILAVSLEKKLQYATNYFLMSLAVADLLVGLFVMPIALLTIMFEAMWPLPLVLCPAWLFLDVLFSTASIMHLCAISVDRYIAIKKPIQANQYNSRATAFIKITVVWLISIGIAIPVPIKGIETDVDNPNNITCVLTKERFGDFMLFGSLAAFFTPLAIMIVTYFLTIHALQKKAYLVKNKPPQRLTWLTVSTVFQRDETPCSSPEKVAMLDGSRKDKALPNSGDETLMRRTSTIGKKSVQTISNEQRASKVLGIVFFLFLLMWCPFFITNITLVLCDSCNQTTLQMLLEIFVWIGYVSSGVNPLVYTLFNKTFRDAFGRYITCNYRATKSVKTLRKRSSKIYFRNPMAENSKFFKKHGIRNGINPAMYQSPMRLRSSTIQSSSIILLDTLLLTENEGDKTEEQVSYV

Regarding `CC1(C)NC(=O)N(c2ccc([N+](=O)[O-])c(C(F)(F)F)c2)C1=O` [NILUTAMIDE], the AC50 in [1] was over 3 µM; in assay [2], over 30 µM; in assay [3], over 30 µM; in [4], over 30 µM; in [5] it was over 30 µM; on D(1A) dopamine receptor, over 30 µM. Further, the AC50 (at Histamine H3 receptor [6]; in assay [7]; in assay [8]; in assay [9]; in [10]; in assay [11]) was over 30 µM in each case. The AC50 (in assay [12]; in [13]; on Histamine H3 receptor [14]) was over 30 µM throughout.

As a reminder, the AC50 is the midpoint of the concentration-response curve, whichever way the signal moves.
